# In patent US20120129152A1, “Diagnostic method for the prediction of the development of and control over the effectiveness of treatment of cardiovascular illnesses” (priority 2010, published 2012):
# How the values were obtained:
# Format in all cases: in vivo, human
# HSV-1 = experiment: IIF of patients' blood immunocytes: cells infected with herpes type 1 virus
# Description: […]
# [1] = Hemodynamic indicators (tetrapolar rheography) of treated patient; conditions: Example 1, after Valacyclovir with Nitrosorbidum and Corinfar
# [2] = Blood serum lipid complex (lipidogram) of treated patients
# [3] = Free-radical acidization of lipids, serum indicators of treated patient; conditions: Example 1, after Valacyclovir with Nitrosorbidum and Corinfar
# [4] = Electrocardiogram indices of treated patient; conditions: Example 1, after Valacyclovir with Nitrosorbidum and Corinfar
# Epstein-Barr virus = experiment: IIF of patients' blood immunocytes: cells infected with Epstein-Barr virus
# Method: (§1) The task set is addressed through a diagnostic method for the prediction of the development and control of the effectiveness of the treatment of cardiovascular, in which patient tissue samples are taken (immunocytes and erythrocytes from venous and capillary blood, smears and prints from atherosclerotic plaques after surgical intervention, and cells from urinary and salivary sediment), microdrugs are prepared, specific anti-viral immunoglobulins are processed (for types 1 and 2 herpes viruses, the cytomegalovirus, the herpes Zoster virus, the Epstein-Barr virus, the herpes 6 virus, or the combinations thereof), the number of cells infected by two or more viruses before the beginning of treatment, during treatment, and after treatment are determined with the application of anti-viral therapy, and the dynamic of the change in the number of infected cells and their interrelationships are established: if the number of cells infected by two or more viruses, among which cytomegalovirus must be found, exceeds 50±10% in patients with cardiovascular disease, a diagnostic conclusion of the threat of atherosclerosis complications such as myocardial infarction and stroke, as well as of complications such as arrhythmia, thrombic embolisms, severe left ventricular failure, repeated myocardial infarction, cardiogenic shock, and a high possibility of a fatal result; the method can also be used in patients with cardiovascular diseases after treatment through a method of a combination of traditional methods and the use of anti-viral drugs and a change is seen in the percentage of infected cells after treatment if the number of cells infected by two or more viruses decreases by more than 20±10% in repeat diagnostics, the treatment is considered successful, whereas if a decrease by 20±10% in the number of cells infected by cytomegalovirus and any other aforementioned virus in repeat diagnostics is not seen, a conclusion is drawn on the ineffectiveness of the therapy applied in that period and the need to change the antiviral therapy scheme.
# cytomegalovirus = experiment: IIF of patients' blood immunocytes: cells infected with cytomegalovirus
# Method: as §1
# [5] = Clinical condition of treated patient with ischemic heart disease
# [6] = Example 2, after Valacyclovir 3 courses of 7 days, before 50% of cells infected
compound,measurement,setting,value
CC(C)[C@H](N)C(=O)OCCOCn1cnc2c(=O)[nH]c(N)nc21 [Valacyclovir],immunocytes infected with HSV-1 (IIF),"HSV-1; Example 3, after Valacyclovir 5 courses of 7 days, before 70% of cells infected",30%
same,"herpes type 1 virus antigens in immunocytes, repeat IIF study","HSV-1; Example 4, two months after combination therapy Valacyclovir with immunoglobulin and Laferobion, before 60% of cells infected",did not discover antigens
same,capacity of the left ventricle,[1]; before 2.02,2.29 W
same,energy loss,[1]; before 15.96,10.37 conditional units
same,specific peripheral resistance,[1]; before 74.53,65.97 conditional units
same,flow rate,[1]; before 126.5,169.71 mL/s
same,total peripheral vascular resistance,[1]; before 2917.9,2673.6 dyn s cm^−5
same,total cholesterol in blood serum,"[2]; Example 1, patient one, after Valacyclovir 1.0 g three times a day with Nitrosorbidum and Corinfar, before 6.71",3.26 mmol/L
same,cholesterol/HDL,"[2]; Example 1, after Valacyclovir with Nitrosorbidum and Corinfar, before 1.17",1.20 mmol/L
same,LDL,"[2]; Example 1, after Valacyclovir with Nitrosorbidum and Corinfar, before 1.55",0.47 mmol/L
same,triglycerides in blood serum,"[2]; Example 1, after Valacyclovir with Nitrosorbidum and Corinfar, before 3.4",1.04 mmol/L
same,cholesterol/LDL,"[2]; Example 1, after Valacyclovir with Nitrosorbidum and Corinfar, before 3.99",3.68 mmol/L
same,atherogenesis index,"[2]; Example 1, after Valacyclovir with Nitrosorbidum and Corinfar, before 4.74",3.38
same,b-lipoproteins in blood serum,"[2]; Example 1, after Valacyclovir with Nitrosorbidum and Corinfar, before 770",310 conditional units
same,triglycerides,"[2]; Example 2, after Valacyclovir 1.0 g 3×/day for 3 courses of 7 days, before 1.55",1.3 mmol/L
same,total cholesterol,"[2]; Example 2, after Valacyclovir 1.0 g 3×/day for 3 courses of 7 days, before 4.9",4.7 mmoles/1
same,total cholesterol,"[2]; Example 3, after Valacyclovir 1 g 3×/day for 5 courses of 7 days with 7-day intervals, before 5.6",4.9 mmol/L
same,triglycerides,"[2]; Example 3, after Valacyclovir 1 g 3×/day for 5 courses of 7 days, before 2.55",1.95 mmol/L
same,triglycerides,"[2]; Example 4, after combination therapy Valacyclovir with immunoglobulin and Laferobion, before 1.4",1.3 mmoles/1
same,total cholesterol,"[2]; Example 4, after combination therapy: Valacyclovir 1.0 g 3 times a day, three courses of seven days, with immunoglobulin and Laferobion, before 3.9",1.5 mmoles/1
same,triethynoid conjugates,[3]; before 0.23,0.14 mcmol/ml
same,serum malondialdehyde,[3]; before 0.50,0.31 mcmol/ml
same,diethynoid conjugates,[3]; before 1.332,0.70 mcmol/ml
same,a-tocopherol content,[3]; before 2.69,4.32 mcmol/ml
same,glutathione reductase activity,[3]; before 12.4,22.0 mcmol/l h
same,NST on the electrocardiogram,[4]; before 10.0,0
same,SST on the electrocardiogram,[4]; before 11.0,0
same,T index on the electrocardiogram,[4]; before 35.0,0
same,blood immunocytes infected with EBV (IIF),"Epstein-Barr virus; Example 1, after Valacyclovir with Nitrosorbidum and Corinfar, before 70% of cells infected",50%
same,blood immunocytes infected with EBV (IIF),Epstein-Barr virus; [6],10%
same,"Epstein-Barr virus antigens in immunocytes, repeat IIF study","Epstein-Barr virus; Example 4, two months after combination therapy Valacyclovir with immunoglobulin and Laferobion, before 50% of cells infected",did not discover antigens
same,blood immunocytes infected with CMV (IIF),"cytomegalovirus; Example 1, after Valacyclovir with Nitrosorbidum and Corinfar, before 60% of cells infected",20%
same,CMV in the blood immunocytes (IIF),cytomegalovirus; [6],not present
same,immunocytes infected with cytomegalovirus (IIF),"cytomegalovirus; Example 3, after Valacyclovir 5 courses of 7 days, before 50% of cells infected",10%
same,"cytomegalovirus antigens in immunocytes, repeat IIF study","cytomegalovirus; Example 4, two months after combination therapy Valacyclovir with immunoglobulin and Laferobion, before 30% of cells infected",did not discover antigens
same,patient's condition,"[5]; Example 1, within seven weeks, Valacyclovir with Nitrosorbidum and Corinfar",improved significantly
same,angina pain and shortness of breath,"[5]; Example 1, within seven weeks, Valacyclovir with Nitrosorbidum and Corinfar, nitroglycerine tablets not used",not present
same,"lipidogram, peroxide acidization of lipids, electrocardiography and tetrapolar rheography indicators","[5]; summary of the examples, standard treatment scheme combined with Valacyclovir",normalized
CCC(C)(C)C(=O)O[C@H]1C[C@@H](C)C=C2C=C[C@H](C)[C@H](CC[C@@H]3C[C@@H](O)CC(=O)O3)[C@H]21 [simvastatin],total cholesterol,"[2]; Example 2, patient two, after six months of simvastatin 10 mg/day (with metoprolol, enalapril, aspirin), goal indicator 5.0 mmoles/l",4.9 mmoles/1
same,triglycerides,"[2]; Example 2, after six months of simvastatin 10 mg/day",1.55 mmol/L
same,total cholesterol,"[2]; Example 3, patient, after five months of simvastatin 10 mg/day (with metoprolol, aspirin), goal indicator 5.0 mmoles/l",5.6 mmoles/1
same,triglycerides,"[2]; Example 3, after five months of simvastatin 10 mg/day",2.55 mmol/L
same,total cholesterol,"[2]; Example 4, patient one, after six months of Zocor 20 mg/day (with Corvitol, Renitec, aspirin), goal indicator 4.0 mmoles/l",3.9 mmoles/1
same,triglycerides,"[2]; Example 4, after six months of Zocor 20 mg/day",1.4 mmol/L
